Assay results reported in US20130011376A1, “Methods for Enhancing Natural Killer Cell Proliferation and Activity” (GAMIDA CELL LTD., priority 2009, published 2013).

Key:
Format in all cases: cell-based, human
[1] = system: CD3+ T cells and CD3+CD56+ NKT cells; assay: T and NKT cell fractions in peripheral blood NK cell cultures (FACS); conditions: increasing nicotinamide concentration (2.5 to 7.5 mM), three weeks
Protocol: Purified CD56+ or CD56+CD3− cells from total nuclear or mononuclear cells or from the fraction depleted from CD34+ or CD133+ cells were cultured in culture bags, T-Flasks or 24 well plates at a concentration of 1-100×10^4 cells/ml in MEMα/10% FCS or CellGro SCGM (Cell Genix)/5% Human Serum/LiforCell® FBS Replacement (Lifeblood Products) containing the following human recombinant cytokines:, interleukin-2 (IL-2) (5-50 ng/ml), interleukin-15 (IL-15), FLT-3 or SCF or FLT3 and SCF or IL-2 and IL-15 or IL-2 only (Perpo Tech, Inc., Rocky Hill, N.J., USA), with or without nicotinamide, and incubated at 37° C. in a humidified atmosphere of 5% CO2 in air. The cultures were topped up once or twice a week with the same volume of fresh medium containing growth factors with or without nicotinamide. […]
The cells were washed with a PBS solution containing 1% BSA, and stained (at 4° C. for 30 min) with fluorescein isothiocyanate (FITC)- or phycoerythrin (PE)-conjugated antibodies or allophycocyanin (APC). The cells were then washed in the above buffer and analyzed using a FACScalibur® flow cytometer (Becton Dickinson, San Jose, Calif., USA). […] Emission of 10^4 cells was measured using logarithmic amplification, and analyzed using the CellQuest software (Becton Dickinson). Cells stained with FITC, PE and APC-conjugated isotype control antibodies were used to determine background fluorescence. […]

[2] = system: cord-blood derived NK cells; assay: Expression of CXCR4, CD49e and CD62L receptors on cultured cord blood NK cells (FACS); conditions: 2.5 or 5 mM nicotinamide, three weeks, vs cytokines only
Protocol: (§1) 2. Purified CD56+ or CD56+CD3− cells from total nuclear or mononuclear cells or from the fraction depleted from CD34+ or CD133+ cells were cultured in culture bags, T-Flasks or 24 well plates at a concentration of 1-100×10^4 cells/ml in MEMα/10% FCS or CellGro SCGM (Cell Genix)/5% Human Serum/LiforCell® FBS Replacement (Lifeblood Products) containing the following human recombinant cytokines:, interleukin-2 (IL-2) (5-50 ng/ml), interleukin-15 (IL-15), FLT-3 or SCF or FLT3 and SCF or IL-2 and IL-15 or IL-2 only (Perpo Tech, Inc., Rocky Hill, N.J., USA), with or without nicotinamide, and incubated at 37° C. in a humidified atmosphere of 5% CO2 in air. The cultures were topped up once or twice a week with the same volume of fresh medium containing growth factors with or without nicotinamide. Eventually cultures can be supplemented once or several times a week with IL-2 and or IL-2 and IL-15. To estimate the number of cells in culture, cell samples were stained with trypan blue for counting. At various time points, samples were taken for FACS analysis to assay the relative fractions of NK cells, CD56+CD3−, CD56+CD3+, CD34+CD56+, CD56+CD16+ and/or CD56+ NKG2A cells.
(§2) The cells were washed with a PBS solution containing 1% BSA, and stained (at 4° C. for 30 min) with fluorescein isothiocyanate (FITC)- or phycoerythrin (PE)-conjugated antibodies or allophycocyanin (APC). The cells were then washed in the above buffer and analyzed using a FACScalibur® flow cytometer (Becton Dickinson, San Jose, Calif., USA). The cells were passed at a rate of up to 1000 cells/second, using a 488 nm or 661 nm argon laser beam as the light source for excitation. Emission of 10^4 cells was measured using logarithmic amplification, and analyzed using the CellQuest software (Becton Dickinson). Cells stained with FITC, PE and APC-conjugated isotype control antibodies were used to determine background fluorescence.

[3] = system: bone marrow derived CD56+ cells; assay: Proliferation and subsets of bone marrow derived CD56+ cells in culture
Protocol: Bone marrow (BM) and peripheral blood (PB) cells were layered on a Ficoll-Hypaque gradient (1.077 g/mL; Sigma), and centrifuged at 800×g for 30 min. The mononuclear cells in the interface layer were collected and washed three times in phosphate-buffered saline (PBS) (Biological Industries, Israel) containing 0.5% HSA.
Cord blood (CB), bone marrow (BM) or peripheral blood (PB) cells were layered on a Ficoll-Hypaque gradient (1.077 g/mL; Sigma), and centrifuged at 800×g for 30 minutes for separation of the mononuclear cells. The cells in the interface layer were collected and washed three times in phosphate-buffered saline (PBS) (Biological Industries, Israel) containing 0.5% HSA. To purify the CD56+ cells, the mononuclear cell fraction was subjected to two cycles of immunomagnetic bead separation, using a “MiniMACS or CliniMACS CD56 progenitor cell isolation kit” (Miltenyi Biotec Bergisch, Gladbach, Germany), according to the manufacturer's recommendations. Briefly, CD56+ cells are reacted with CD56+ specific magnetic immunobeads, separated and with a magnetic separator, and purified from unbound cells by washing. The purity of the CD56+ population thus obtained is approximately 92%, as evaluated by flow cytometry.
as §1
To determine total number of cells on day 7, 14 and 21, the cell count/ml was multiplied by the volume of the culture medium. In order to determine the number of NK cells in culture, the total number of cells in culture was multiplied by the percent of CD56+/CD3− cells measured with the FACS on days 7, 14 or 21. To measure fold expansion, total number of NK cells on days 7, 14 and 21 was divided by total number of NK cells seeded in culture on day-0.
as §2

[4] = system: purified cord-blood derived CD56+ cells; assay: Inhibitory CD56+NKG2A cell fraction in cultured cord blood CD56+ cells (FACS); conditions: 1, 2.5 and 5 mM nicotinamide, 3 weeks culture
Protocol: as §1, with “Eventually cultures can be supplemented once or several times a week with IL-2 and or IL-2 and IL-15. To estimate the number of cells in culture, cell samples were stained with trypan blue for counting. At various time points, samples were taken for FACS analysis to assay the relative fractions of NK cells, CD56+CD3−, CD56+CD3+, CD34+CD56+, CD56+CD16+ and/or CD56+ NKG2A cells.” left out
as §2, with “The cells were passed at a rate of up to 1000 cells/second, using a 488 nm or 661 nm argon laser beam as the light source for excitation.” left out, “fluorescence. […]” for “fluorescence.”

[5] = 1 mM, 2.5 mM and 5 mM nicotinamide, 7 days

NC(=O)c1cccnc1 [nicotinamide]
fraction of CD3+ T cells [1]: reduction
fraction of CD3+CD56+ NKT cells [1]: reduction
expression of CD49e (adhesion receptor) [2]: elevated expression
expression of CD62L (trafficking receptor) [2]: strongly enhanced expression
expression of CXCR4 (migratory receptor) [2]: strongly enhanced expression
proliferation of CD56+CD3+ NKT cells [3, 5]: decreased proliferation
proliferation of the CD56+CD3- NK cell subset [3, 5]: enhancement of proliferation
proliferation of CD56+CD16+ NK cells ([3]; 2.5 mM and 5 mM nicotinamide, 7 days): most enhanced
increase of NK cell proliferation between 14 and 21 days ([3]; 2.5 mM nicotinamide): 50%
fraction of NK cells displaying the CD56+CD16+ phenotype vs cytokines alone ([3]; 2.5 mM nicotinamide, 14 and 21 days): significant increase
proliferation of NK cells (fold increase) ([3]; 2.5 mM nicotinamide, 14 days): 8 fold increase
proliferation of NK cells (fold increase) ([3]; 2.5 mM nicotinamide, 21 days): 12 fold increase
CD56+CD3- NK cells among cultured cells (dominance over CD56+CD3+ NKT cells) ([3]; nicotinamide treated cultures, 21 days): greater than 80%
prevalence of the inhibitory CD56+NKG2A cell fraction among NK cells [4]: significant and dose dependent reduction
